We go through 5 compounds from patent US20240381872A1, “SUBSTITUTED 2,3-DIHYDRO[1,3]THIAZOLO[4,5-B]PYRIDINES, SALTS THEREOF AND THEIR USE AS HERBICIDALLY ACTIVE SUBSTANCES” (BAYER AKTIENGESELLSCHAFT, priority 2021, published 2024).

The structures appear in SMILES notation.

Holding throughout (assay type): in vivo
One series has as its system Lolium rigidum (LOLRI). As to the kind of experiment: Herbicidal pre-emergence action, section C (Table C5). The settings on record: Lolium rigidum, pre-emergence, 504 h, visual grading after ca. 3 weeks, read-out: pre-emergence activity against LOLRI in %; for pest or weed control at 80 g/ha: application rate 80 g/ha. The gist of the method: (§1)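 Greenhouse pre-emergence test on sandy loam: spray of formulated compound onto covering soil at 600 l water/ha, then percent damage judged by eye after ca. 3 weeks relative to untreated pots.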

Series [1] deals with Alopecurus myosuroides (ALOMY). As to the kind of experiment: Herbicidal post-emergence action, section E (Table E2). Particulars: Alopecurus myosuroides, post-emergence, 504 h; application rate 320 g/ha; assessed visually after ca. 3 weeks; read-out: post-emergence activity against ALOMY in %. Summed up: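 Scoring was visual, in percent relative to untreated plants, about three weeks after treatment. Test plants had been sprayed on their green parts at the single-leaf stage with an aqueous formulation including 0.5% additive, applied at 600 l water/ha.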

The next series concerns Glycine max (GLXMA). As to the kind of experiment: Pre-emergence effects on crop plants, section D (Table D4). Particulars: visual grading after ca. 3 weeks. The gist of the method:
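Read-out: visual percent injury versus untreated controls at ca. 3 weeks (0% as control, 100% dead). Treatment: aqueous WP/EC suspension or emulsion with 0.5% additive, 600 l/ha, on soil covering seeds in sandy loam, at 320 g/ha or below, under optimum greenhouse conditions.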

The subject of a further series is Oryza sativa (ORYZA). The experiment in a line: Post-emergence effects on crop plants, section F (Table F3). Particulars: Oryza sativa, 504 h, read-out: post-emergence activity against ORYZA in %; for percent crop plant damage at 80 g/ha: application rate 80 g/ha. Summed up:
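After sowing in sandy loam and 2–3 weeks' greenhouse growth, single-leaf plants received foliar sprays (WP or EC, 0.5% additive, 600 l/ha water, ≤320 g/ha). Around 3 weeks on, herbicidal effect was estimated by eye, 0% meaning like controls and 100% meaning plants died.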

The next series concerns Setaria viridis (SETVI). As to the kind of experiment: Herbicidal pre-emergence action, section C (Table C8). The settings on record: Setaria viridis, pre-emergence, 504 h, visual grading after ca. 3 weeks, read-out: pre-emergence activity against SETVI in %; for pest or weed control at 80 g/ha: application rate 80 g/ha. Summed up:
as §1

A further series deals with Poa annua (POAAN). The experiment in a line: Herbicidal post-emergence action, section B (Table B7). The settings on record: Poa annua, post-emergence, 504 h, visual rating about 3 weeks after treatment vs untreated controls, read-out: post-emergence activity against POAAN in %; for pest or weed control at 1280 g/ha: application rate 1280 g/ha. The gist of the method:
(§2)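 In this greenhouse assay, compounds in WP or EC form were applied post-emergence with 0.5% additive at a water rate of 600 liters per hectare. Treatment took place at the one-leaf stage, and injury was rated visually about 3 weeks later against untreated plants.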

A further series has as its system Veronica persica (VERPE). The experiment in a line: Herbicidal post-emergence action, section B (Table B10). The settings on record: Veronica persica, post-emergence, 504 h, visual rating about 3 weeks after treatment vs untreated controls, read-out: post-emergence activity against VERPE in %; for pest or weed control at 320 g/ha: application rate 320 g/ha. The gist of the method: as §2

Series [2] deals with Digitaria sanguinalis (DIGSA). The experiment in a line: Herbicidal post-emergence action, section B (Table B12). The settings on record: Digitaria sanguinalis, post-emergence, 504 h, visual rating about 3 weeks after treatment vs untreated controls, read-out: post-emergence activity against DIGSA in %. Summed up:
as §2

For `Cc1cc2c(nc1-c1ccccc1Cl)NCS2` [Example I-049, 5-(2-chlorophenyl)-6-methyl-2,3-dihydro[1,3]thiazolo[4,5-b]pyridine], the pest or weed control at 80 g/ha in the series on Lolium rigidum (LOLRI) and in the series on Setaria viridis (SETVI) was 100% throughout. In addition, the pest or weed control at 320 g/ha in series [1] is 80%. Further, the “pre-emergence activity against GLXMA in % (crop plant damage)” value in the series on Glycine max (GLXMA) (application rate 320 g/ha) stood at 0%. Moreover, the percent crop plant damage at 80 g/ha in the series with Oryza sativa (ORYZA) was determined as 20%.

As to `CCS(=O)(=O)N1C[S+]([O-])c2cc(C)c(-c3ccccc3C)nc21` (centres unmarked) [Example I-074], the pest or weed control at 320 g/ha with Poa annua (POAAN) (application rate 320 g/ha) worked out at 90%; with Veronica persica (VERPE), 90%; in series [1] it was 90%; with Setaria viridis (SETVI) (application rate 320 g/ha), 100%. Further, in the series with Glycine max (GLXMA) (application rate 320 g/ha), the “pre-emergence activity against GLXMA in % (crop plant damage)” value came out at 0%. For the same compound, in the series on Oryza sativa (ORYZA), the percent crop plant damage at 80 g/ha stood at 0%. In series [2] (application rate 1280 g/ha), the pest or weed control at 1280 g/ha came out at 90%.

For `Cc1cc2c(nc1-c1cccc(F)c1F)NCS2` [Example I-029, 5-(2,3-difluorophenyl)-6-methyl-2,3-dihydro[1,3]thiazolo[4,5-b]pyridine], the pest or weed control at 1280 g/ha with Poa annua (POAAN) and in the series on Veronica persica (VERPE) (application rate 1280 g/ha) was 90% each time. The pest or weed control at 320 g/ha in the series with Lolium rigidum (LOLRI) (application rate 320 g/ha) worked out at 100%; in series [1] it was 80%. The “pre-emergence activity against GLXMA in % (crop plant damage)” value with Glycine max (GLXMA) (application rate 80 g/ha) is listed as 10%. For the same compound, the percent crop plant damage at 80 g/ha in the series with Oryza sativa (ORYZA) is 0%. Moreover, the pest or weed control at 80 g/ha with Setaria viridis (SETVI) came out at 100%.

Consider `Fc1ccccc1-c1nc2c(cc1Br)SCN2` [Example I-001, 6-bromo-5-(2-fluorophenyl)-2,3-dihydro[1,3]thiazolo[4,5-b]pyridine], for which the pest or weed control at 80 g/ha with Lolium rigidum (LOLRI) and in the series on Setaria viridis (SETVI) was 100% throughout. The pest or weed control at 320 g/ha in series [1] came to 90%. Further, the “pre-emergence activity against GLXMA in % (crop plant damage)” value in the series on Glycine max (GLXMA) (application rate 320 g/ha) came out at 0%. Also, the percent crop plant damage at 320 g/ha in the series on Oryza sativa (ORYZA) (application rate 320 g/ha) turned out to be 20%.

Take `CCS(=O)(=O)N1CSc2cc(C)c(-c3ccccc3F)nc21` [Example I-060, 3-(ethylsulfonyl)-5-(2-fluorophenyl)-6-methyl-2,3-dihydro[1,3]thiazolo[4,5-b]pyridine]: the pest or weed control at 1280 g/ha with Poa annua (POAAN) stood at 90%. For the same compound, the pest or weed control at 320 g/ha (with Veronica persica (VERPE); in series [1]; in series [2] (application rate 320 g/ha)) was 90% each time. Moreover, the pest or weed control at 80 g/ha in the series with Lolium rigidum (LOLRI) and with Setaria viridis (SETVI) was 100% each time. For the same compound, the “pre-emergence activity against GLXMA in % (crop plant damage)” value in the series on Glycine max (GLXMA) (application rate 80 g/ha) was 0%. In addition, the percent crop plant damage at 80 g/ha in the series with Oryza sativa (ORYZA) worked out at 0%.
